“Also recorded” adds a separate entry of the source.
Legend:
[1] = target: T1, H-Ras(M72C) activation by SOScat (Homo sapiens, UniProt P01112, M72C); assay: SOScat catalyzed nucleotide exchange read out by Raf-1-RBD pull-down; format: biochemical
T1 construct: and H-Ras (residues 1-166) were transformed into Escherichia coli; His6; made in house; host or cells: Escherichia coli BL21(DE3)
Description: FIGS. 29A-29D. […] FIG. 29D: Reconstruction of Ras cycle is achieved by inducing nucleotide exchange of 100 nM Ras by various concentrations of SOS^cat for either 1 or 2 hours and subsequent pull-down by Raf-1-RBD.
FIGS. 33A-33D. […] In FIG. 33B) through FIG. 33D), normalized pull-down signals are shown below the blot. S. E. M for each signal, number of replicates, and […] for each comparative Standard T-Test are summarized herein (see Tables 33B, 33C, and 33D). […] Comparative statistics were done for normalized pull-down signals between protein constructs of the same condition (i.e. in FIG. 33B) and FIG. 33C), column 1 for unlabeled and 1 for labeled protein, 2 for unlabeled and 2 for labeled, and so on were statistically compared, and in FIG. 33D) only the +SOS^cat and +GppNHp lanes were compared across protein constructs). FIG. 33A) Cartoon representation of pull down protocol. […] Reported values are quantified pull-down signals normalized to input. FIG. 33B) Cartoon representation of pull down protocol. […] FIG. 33C) Cartoon representation of pull down protocol. […] FIG. 33D) Cartoon representation of pull down protocol. Ras activation is achieved by catalyzing nucleotide exchange by SOS^cat and indirectly reading out activated Ras by subsequent pull down by Raf-1-RBD.

[2] = target: T2, H-Ras(M72C) GDP binding to SOScat (Homo sapiens, UniProt P01112, M72C); assay: Ras GDP in vitro pull down by His6 tagged SOScat
T2 construct: and H-Ras (residues 1-166) were transformed into Escherichia coli; His6; made in house; host or cells: Escherichia coli BL21(DE3)
Description: Ras GDP In Vitro Pull Down Assay by His6 Tagged SOS^CAT
This experiment was created based on a procedure published in Hall et al., 2001. For each SOS^CAT in vitro pull down the total volume was 500 μL. Each reaction had the following final composition: Either 20, 80, 200, 400, or 800 nM Ras GDP (from 0.2 mg/mL Ras stock), 75 nM BSA (2.5 μg, 5 μL of 0.5 mg/mL BSA stock), 200 nM of His6-SOS^CAT (6 μg, 3 μL of diluted 0.2 mg/mL stock of His6-SOS^CAT), and SOS^CAT Pull Down Buffer to volume (20 mM Tris (pH 7.6), 50 mM NaCl, 5 mM EDTA, 1% Triton X-100, 20 mM imidazole). Samples were then mixed by gentle rotation at 4° C. for 30 min. While equilibrating, add 50 μL Ni-NTA slurry (Qiagen) to a cellulose acetate spin cup and spin at 5,000 rpm on a tabletop centrifuge for 30 seconds. Wash the beads with 400 μL of SOS^CAT Pull Down Buffer to wash away bead storage buffer. Before adding each pull down solution, take 10 μL and save as a loading control sample. To each spin cup filled with washed Ni-NTA beads, add the remaining equilibrated pull down solution, seal the spin cup with parafilm and let rotate at 4° C. for 30 more minutes. After mixing, centrifuge the sample for 30 seconds at 5,000 rpm. Toss flow through. Wash the beads×5 with 400 μL of SOS^CAT Pull Down Buffer. After last wash, centrifuge one last time to remove any excess buffer stuck to the beads. To each cup, add 50 μL of 5×SDS loading buffer and mix by vortexing. Let the buffer sit on the beads for 5 minutes and then elute into a fresh tube by centrifuging at 5000 rpm for 1.5 minutes. Load 10 μL of each loading control sample and 25 μL of each eluted pull down onto a SDS-PAGE gel and transfer to a nitrocellulose blot for Western Blot analysis. Block with 5% BSA TBS buffer and then blot with pan Ras primary antibody at a 1:500 dilution in 5% BSA in TBST (Cell Signaling #3965). Blots were read out using LICOR compatible secondary antibodies and quantified. The largest input signal was normalized to one for each protein construct and each pull-down signal (i.e. 20 nM, 80 nM, 200 nM, 400 nM, and 800 nM respectively) was reported relative to that maximum signal. Thus, normalized pull-down signals represent the proportion of Ras pulled down relative to the maximum blot signal detected for that particular protein construct.

1-169 K-Ras(M72C) GDP = target: T3, 1-169 K-Ras(M72C) GDP (Homo sapiens, UniProt P01116, M72C); assay: Disulfide tethering screen, percent modification by intact protein mass spectrometry; format: binding; settings: screening βME 1 mM
T3 construct: Untagged recombinant 1-169 K-Ras(M72C) GDP; His6 (cleaved yes); made in house; host or cells: Escherichia coli BL21(DE3)
Description: In some embodiments, a library of disulfide compounds may be screened against a cysteine-containing protein in the presence of a reducing agent such as β-mercaptoethanol (BME). Compounds with complementary binding contacts with a region of the protein near the cysteine may shift the disulfide exchange equilibrium away from BME modification of the cysteine thiol and enhance the ratio of the hit ligand bound to the cysteine. The resulting mass change of the protein can be readily detected by mass spectrometry, and the percentage of modified protein can be used as a measure of potency. Compounds which exchange with the cysteine without conferring affinity should exchange with reducing agent equally well and will not shift the equilibrium toward protein modification. The potency of various compounds at a given concentration of BME may be compared by calculating the dose-response 50 (DR50), which is the concentration of compound at which the protein becomes 50% modified.
A tethering library of 960 disulfides were screened against 1-169 K-Ras(M72C) GDP using intact protein mass spectrometry to monitor percent modification (See Methods, and FIG. 37). […] To better prioritize tethering fragments, a βME50 value (the concentration of βME needed to reduce disulfide fragment modification to 50%) was determined for each compound. […]

H-Ras(M72C) GppNHp = H-Ras(M72C) GppNHp (Homo sapiens, UniProt P01112, M72C); assay: βME50 and percent labeling of tethering fragments, GppNHp state; format: binding; parameters: Labeling studies were conducted using the 1-166 H-Ras(M72C) construct containing all endogenous cysteines; His6; made in house; host or cells: Escherichia coli BL21(DE3)
Description: FIG. 32. […] Percent labeling against H-Ras(M72C) GDP and GppNHp at the screening βME concentration (1 mM) are graphed.
A tethering library of 960 disulfides were screened against 1-169 K-Ras(M72C) GDP using intact protein mass spectrometry to monitor percent modification (See Methods, and FIG. 37). […] To better prioritize tethering fragments, a βME50 value (the concentration of βME needed to reduce disulfide fragment modification to 50%) was determined for each compound. A higher βME50 value corresponds to a better fragment as it can bind with increasing concentrations of competitive thiol (Erlanson et al., 2004; Yang et al., 2009).

T3 sequence (P01116 1-169 isoform P01116-2 M72C): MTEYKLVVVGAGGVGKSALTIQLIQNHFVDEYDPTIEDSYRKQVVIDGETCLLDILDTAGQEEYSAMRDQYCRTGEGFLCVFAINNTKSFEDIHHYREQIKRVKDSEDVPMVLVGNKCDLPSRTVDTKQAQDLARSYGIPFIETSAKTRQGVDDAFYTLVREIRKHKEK

Normalized Averaged Pull Down (SOS PD Assay) ([2]; H-Ras(M72C) 2C07, [Ras] printed 200 nM, input normalized 1.00): 0.09
Normalized Averaged Pull Down (SOS PD Assay) ([2]; H-Ras(M72C) 2C07, [Ras] 20 nM): 0.002
Normalized Averaged Pull Down (SOS PD Assay) ([2]; H-Ras(M72C) 2C07, [Ras] 80 nM): 0.01
Normalized Averaged Pull Down (SOS PD Assay) ([2]; H-Ras(M72C) 2C07, [Ras] 200 nM): 0.03
Normalized Averaged Pull Down (SOS PD Assay) ([2]; H-Ras(M72C) 2C07, [Ras] 400 nM): 0.06
percent modification (1-169 K-Ras(M72C) GDP): 69.7%
βME50 (H-Ras(M72C) GppNHp; H-Ras(M72C) GppNHp, βME concentration that reduces fragment modification to 50%): 1.10 mM
labeling of H-Ras(M72C) GppNHp (H-Ras(M72C) GppNHp; disulfide tethering at Cys 72): readily modifies
Structure (SMILES): COc1ccc(-n2ncc(C(=O)NCCCSSCCN(C)C)c2C(F)(F)F)cc1 [Compound 2C07, N-(3-((2-(dimethylamino)ethyl)disulfanyl)propyl)-1-(4-methoxyphenyl)-5-(trifluoromethyl)-1H-pyrazole-4-carboxamide]
SOScat catalyzed nucleotide exchange [1]: inhibits activation of H-Ras by SOS^cat; also recorded: inhibits SOS^cat catalyzed nucleotide exchange
